10 compounds from patent US20070191333A1, “Antibacterial agents” (Warner Lambert Company LLC, priority 2003, published 2007) can be followed below.

Each structure is given as a SMILES string. In brackets after ≈: the same amount, converted by molar mass.

In the first assay the test system is S. aureus UC-76. The assay is described as follows: Antibacterial microtitration MIC, S. aureus UC-76. Format: cell-based. The following applies: Staphylococcus aureus, UC76, Gram Positive Bacteria; strain UC-76; read-out: Minimum Inhibitory Concentrations S. aureus UC-76. On the procedure: (§1) Test A—Antibacterial Assays The compounds of the present invention were tested against an assortment of Gram-negative and Gram-positive organisms using standard microtitration techniques (Cohen et. al., Antimicrob., 1985; 28:766; Heifetz, et. al., Antimicrob., 1974; 6:124).
As to `COc1c(N2CC[C@@H]([C@H](C)NCCC#N)C2)c(F)cc2c(=O)n(N)c(=O)n(C3CC3)c12` (single isomer, unassigned) [drawing 417], the MIC amounted to 0.25 mg/L (≈ 0.581 µM).

Take `COc1c(N2CC[C@@H]([C@H](C)NCCC#N)C2)c(F)cc2c(=O)[nH]c(=O)n(C3CC3)c12` (single isomer, unassigned) [drawing 418]: the MIC stood at 1 mg/L (≈ 2.41 µM).

As for `Cc1c(N2CCC(C(N)CC#N)C2)c(F)cc2c(=O)n(N)c(=O)n(C3CC3)c12` (centres unmarked) [drawing 405], the MIC was 0.25 mg/L (≈ 0.647 µM).

Turning to `COc1c(N2CCC(C(N)CC#N)C2)c(F)cc2c(=O)n(N)c(=O)n(C3CC3)c12` (centres unmarked) [drawing 410], the MIC is 2 mg/L (≈ 4.97 µM).

Take `COc1c(N2C[C@@H]3CCC(NCCC#N)[C@@H]3C2)c(F)cc2c(=O)n(N)c(=O)n(C3CC3)c12` (some centres unmarked) [drawing 415]: the MIC was determined as 1 mg/L (≈ 2.26 µM).

Take `Cc1c(N2CC[C@@H](C(NCCC#N)c3ncco3)C2)c(F)cc2c(=O)n(N)c(=O)n(C3CC3)c12` (some centres unmarked) [drawing 416]: the MIC was determined as 8 mg/L (≈ 17.1 µM).

For `Cc1c(N2CCC(C(N)C(C)(C)C#N)C2)c(F)cc2c(=O)n(N)c(=O)n(C3CC3)c12` (centres unmarked) [drawing 419], the MIC came out at 12 mg/L (≈ 29 µM).

As to `COc1c(N2CC(CNCCC#N)C3(CC3)C2)c(F)cc2c(=O)n(N)c(=O)n(C3CC3)c12` (centres unmarked) [drawing 421], the MIC stood at 0.25 mg/L (≈ 0.565 µM).

For a further assay, the system named is S. pneumo SV-1. Nature of the assay: Antibacterial microtitration MIC, S. pneumo SV-1. Format: cell-based. As to conditions: Gram Positive Bacteria; strain SV-1. As for the experimental part: as §1
Take `Cc1c(N2CCC(C(N)C(C)(C)C#N)C2)c(F)cc2c(=O)n(N)c(=O)n(C3CC3)c12` (centres unmarked) [drawing 419]: the “Minimum Inhibitory Concentrations S. pneumo SV-1” value came to 32 µg/mL.

The same assay, now with this note: Gram Positive Bacteria; strain SV-1; read-out: Minimum Inhibitory Concentrations S. pneumo SV-1.
Regarding `COc1c(N2CC[C@@H]([C@H](C)NCCC#N)C2)c(F)cc2c(=O)n(N)c(=O)n(C3CC3)c12` (single isomer, unassigned) [drawing 417], the MIC was 0.125 mg/L (≈ 0.29 µM).

Regarding `COc1c(N2CC[C@@H]([C@H](C)NCCC#N)C2)c(F)cc2c(=O)[nH]c(=O)n(C3CC3)c12` (single isomer, unassigned) [drawing 418], the MIC was 0.25 mg/L (≈ 0.602 µM).

As to `Cc1c(N2CCC(C(N)CC#N)C2)c(F)cc2c(=O)n(N)c(=O)n(C3CC3)c12` (centres unmarked) [drawing 405], the MIC amounted to 0.125 mg/L (≈ 0.323 µM).

Regarding `COc1c(N2CCC(C(N)CC#N)C2)c(F)cc2c(=O)n(N)c(=O)n(C3CC3)c12` (centres unmarked) [drawing 410], the MIC came to 0.5 mg/L (≈ 1.24 µM).

As to `COc1c(N2C[C@@H]3CCC(NCCC#N)[C@@H]3C2)c(F)cc2c(=O)n(N)c(=O)n(C3CC3)c12` (some centres unmarked) [drawing 415], the MIC came to 0.5 mg/L (≈ 1.13 µM).

`Cc1c(N2CC[C@@H](C(NCCC#N)c3ncco3)C2)c(F)cc2c(=O)n(N)c(=O)n(C3CC3)c12` (some centres unmarked) [drawing 416]: the MIC is 8 mg/L (≈ 17.1 µM).

Take `COc1c(N2CC(CNCCC#N)C3(CC3)C2)c(F)cc2c(=O)n(N)c(=O)n(C3CC3)c12` (centres unmarked) [drawing 421]: the MIC came out at 0.06 mg/L (≈ 0.136 µM).

For a further assay, the system named is E. faecalis MGH-2. Nature of the assay: Antibacterial microtitration MIC, E. faecalis MGH-2. In kind it is cell-based. The following applies: Enterococcus faecalis, MGH2, Gram Positive Bacteria; strain MGH-2; read-out: Minimum Inhibitory Concentrations E. faecalis MGH-2. On the procedure: as §1
With `COc1c(N2CC[C@@H]([C@H](C)NCCC#N)C2)c(F)cc2c(=O)n(N)c(=O)n(C3CC3)c12` (single isomer, unassigned) [drawing 417], the MIC was 1 mg/L (≈ 2.32 µM).

`COc1c(N2CC[C@@H]([C@H](C)NCCC#N)C2)c(F)cc2c(=O)[nH]c(=O)n(C3CC3)c12` (single isomer, unassigned) [drawing 418]: the MIC turned out to be 2 mg/L (≈ 4.81 µM).

As to `Cc1c(N2CCC(C(N)CC#N)C2)c(F)cc2c(=O)n(N)c(=O)n(C3CC3)c12` (centres unmarked) [drawing 405], the MIC stood at 0.5 mg/L (≈ 1.29 µM).

For `COc1c(N2CCC(C(N)CC#N)C2)c(F)cc2c(=O)n(N)c(=O)n(C3CC3)c12` (centres unmarked) [drawing 410], the MIC amounted to 2 mg/L (≈ 4.97 µM).

With `COc1c(N2C[C@@H]3CCC(NCCC#N)[C@@H]3C2)c(F)cc2c(=O)n(N)c(=O)n(C3CC3)c12` (some centres unmarked) [drawing 415], the MIC amounted to 4 mg/L (≈ 9.04 µM).

As for `Cc1c(N2CC[C@@H](C(NCCC#N)c3ncco3)C2)c(F)cc2c(=O)n(N)c(=O)n(C3CC3)c12` (some centres unmarked) [drawing 416], the MIC was 32 mg/L (≈ 68.4 µM).

Regarding `Cc1c(N2CCC(C(N)C(C)(C)C#N)C2)c(F)cc2c(=O)n(N)c(=O)n(C3CC3)c12` (centres unmarked) [drawing 419], the MIC is 32 mg/L (≈ 77.2 µM).

As for `COc1c(N2CC(CNCCC#N)C3(CC3)C2)c(F)cc2c(=O)n(N)c(=O)n(C3CC3)c12` (centres unmarked) [drawing 421], the MIC is 1 mg/L (≈ 2.26 µM).

The test system of a further assay is S pyogenes C203. Nature of the assay: Antibacterial microtitration MIC, S pyogenes C203. As to conditions: Gram Positive Bacteria; strain C203; read-out: Minimum Inhibitory Concentrations S pyogenes C203. Format: cell-based. On the procedure: as §1
`COc1c(N2CC[C@@H]([C@H](C)NCCC#N)C2)c(F)cc2c(=O)n(N)c(=O)n(C3CC3)c12` (single isomer, unassigned) [drawing 417]: the MIC stood at 0.125 mg/L (≈ 0.29 µM).

Regarding `COc1c(N2CC[C@@H]([C@H](C)NCCC#N)C2)c(F)cc2c(=O)[nH]c(=O)n(C3CC3)c12` (single isomer, unassigned) [drawing 418], the MIC was found to be 0.5 mg/L (≈ 1.2 µM).

`Cc1c(N2CCC(C(N)CC#N)C2)c(F)cc2c(=O)n(N)c(=O)n(C3CC3)c12` (centres unmarked) [drawing 405]: the MIC stood at 0.125 mg/L (≈ 0.323 µM).

Take `COc1c(N2CCC(C(N)CC#N)C2)c(F)cc2c(=O)n(N)c(=O)n(C3CC3)c12` (centres unmarked) [drawing 410]: the MIC is 0.5 mg/L (≈ 1.24 µM).

Turning to `COc1c(N2C[C@@H]3CCC(NCCC#N)[C@@H]3C2)c(F)cc2c(=O)n(N)c(=O)n(C3CC3)c12` (some centres unmarked) [drawing 415], the MIC was 1 mg/L (≈ 2.26 µM).

For the compound `Cc1c(N2CC[C@@H](C(NCCC#N)c3ncco3)C2)c(F)cc2c(=O)n(N)c(=O)n(C3CC3)c12` (some centres unmarked) [drawing 416], the MIC was determined as 8 mg/L (≈ 17.1 µM).

As for `Cc1c(N2CCC(C(N)C(C)(C)C#N)C2)c(F)cc2c(=O)n(N)c(=O)n(C3CC3)c12` (centres unmarked) [drawing 419], the MIC was determined as 32 mg/L (≈ 77.2 µM).

As for `COc1c(N2CC(CNCCC#N)C3(CC3)C2)c(F)cc2c(=O)n(N)c(=O)n(C3CC3)c12` (centres unmarked) [drawing 421], the MIC was 0.06 mg/L (≈ 0.136 µM).

The subject of another assay is E. coli 2026. The assay is described as follows: Antibacterial microtitration MIC, E. coli 2026. Format: cell-based. The following applies: Escherichia coli, 2026, Gram Negative Bacteria; strain 2026; read-out: Minimum Inhibitory Concentrations E. coli 2026. As for the experimental part: as §1
Regarding `COc1c(N2CC(CNCCC#N)C3(CC3)C2)c(F)cc2c(=O)n(N)c(=O)n(C3CC3)c12` (centres unmarked) [drawing 404], the MIC was 2 mg/L (≈ 4.52 µM).

The assay is the same for the next values; noted with them: Gram Negative Bacteria; strain 2026.
As to `Cc1c(N2CCC(C(N)C(C)(C)C#N)C2)c(F)cc2c(=O)n(N)c(=O)n(C3CC3)c12` (centres unmarked) [drawing 403], the “Minimum Inhibitory Concentrations E. coli 2026” value came out at 64 µg/mL.

Another assay deals with H. influenzae HI-3542. The assay is described as follows: Antibacterial microtitration MIC, H. influenzae HI-3542. The following applies: Gram Negative Bacteria; strain HI-3542. Format: cell-based. On the procedure: as §1
For the compound `Cc1c(N2CCC(C(N)C(C)(C)C#N)C2)c(F)cc2c(=O)n(N)c(=O)n(C3CC3)c12` (centres unmarked) [drawing 403], the “Minimum Inhibitory Concentrations H. influenzae HI-3542” value was 32 µg/mL.

The assay is the same for the next values; noted with them: Haemophilus influenzae, HI3542, Gram Negative Bacteria; strain HI-3542; read-out: Minimum Inhibitory Concentrations H. influenzae HI-3542.
As for `COc1c(N2CC(CNCCC#N)C3(CC3)C2)c(F)cc2c(=O)n(N)c(=O)n(C3CC3)c12` (centres unmarked) [drawing 404], the MIC was found to be 1 mg/L (≈ 2.26 µM).

Another assay deals with M. catarrhalis BC-3531. The assay is described as follows: Antibacterial microtitration MIC, M. catarrhalis BC-3531. Format: cell-based. The following applies: Gram Negative Bacteria; strain BC-3531. On the procedure:
as §1
`Cc1c(N2CCC(C(N)C(C)(C)C#N)C2)c(F)cc2c(=O)n(N)c(=O)n(C3CC3)c12` (centres unmarked) [drawing 403]: the “Minimum Inhibitory Concentrations M. catarrhalis BC-3531” value was 16 µg/mL.

Staying with this assay, now noted: Moraxella catarrhalis, BC3531, Gram Negative Bacteria; strain BC-3531; read-out: Minimum Inhibitory Concentrations M. catarrhalis BC-3531.
As to `COc1c(N2CC(CNCCC#N)C3(CC3)C2)c(F)cc2c(=O)n(N)c(=O)n(C3CC3)c12` (centres unmarked) [drawing 404], the MIC was 8 mg/L (≈ 18.1 µM).
